Measurements taken from ChEMBL document CHEMBL2074439, “Localization and genomic organization of a new hepatocellular organic anion transporting polypeptide” (J Biol Chem, 2000).

Columns and labels:
OATP8 (OATP1B3, SLCO1B3) = molecular target: T1, OATP8 (OATP1B3, SLCO1B3) (Homo sapiens, UniProt Q9NPD5); assay: (§1) TP_TRANSPORTER: uptake in OATP8-expressing HEK293 cells; type: functional, cell-based; conditions: HEK293 cells that express OATP8 (OATP1B3)
T1 sequence (Q9NPD5 whole entry): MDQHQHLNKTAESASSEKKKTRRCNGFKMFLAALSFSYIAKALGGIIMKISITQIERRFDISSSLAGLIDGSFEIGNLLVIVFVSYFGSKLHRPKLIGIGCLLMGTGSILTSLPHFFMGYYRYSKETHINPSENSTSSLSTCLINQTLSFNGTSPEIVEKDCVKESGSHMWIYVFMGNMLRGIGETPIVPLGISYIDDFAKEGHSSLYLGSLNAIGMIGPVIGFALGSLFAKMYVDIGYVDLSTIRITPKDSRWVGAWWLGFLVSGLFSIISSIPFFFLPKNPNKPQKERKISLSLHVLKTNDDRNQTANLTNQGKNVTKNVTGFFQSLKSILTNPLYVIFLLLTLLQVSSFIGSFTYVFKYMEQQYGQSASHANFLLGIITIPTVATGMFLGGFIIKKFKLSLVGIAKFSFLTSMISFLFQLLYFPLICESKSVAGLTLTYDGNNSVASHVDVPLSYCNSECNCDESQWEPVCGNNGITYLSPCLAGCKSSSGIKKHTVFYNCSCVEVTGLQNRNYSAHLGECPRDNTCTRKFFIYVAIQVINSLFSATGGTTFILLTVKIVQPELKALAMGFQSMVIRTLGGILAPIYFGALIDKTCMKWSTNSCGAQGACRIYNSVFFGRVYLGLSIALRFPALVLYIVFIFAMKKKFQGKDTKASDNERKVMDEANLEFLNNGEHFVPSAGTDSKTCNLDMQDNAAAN

[1] = molecular target: T2, Solute carrier organic anion transporter family member 1B3 (Homo sapiens, UniProt Q9NPD5); assay: as §1; type: functional, cell-based; conditions: hek293
T2 sequence (Q9NPD5 whole entry): T1 sequence (Q9NPD5 whole entry)

Activity [1]	Structure (SMILES)	Km (OATP8 (OATP1B3, SLCO1B3)) [µM]	Km [1] [µM]
	C[C@]12CC[C@@H]3c4ccc(O)cc4CC[C@H]3[C@@H]1CC[C@@H]2O[C@@H]1O[C@H](C(=O)O)[C@@H](O)[C@H](O)[C@H]1O [ESTRADIOL 17B GLUCURONIDE]	5.4	5.4
substrate [+]	CCCCC/C=C\C\C=C/C=C/C=C/[C@@H](SC[C@@H](NC(=O)CC[C@H](N)C(=O)O)C(=O)NCC(=O)O)[C@@H](O)CCCC(=O)O [LEUKOTRIEN C4]		
	O=C1OC(c2ccc(O)c(S(=O)(=O)O)c2)(c2ccc(O)c(S(=O)(=O)O)c2)c2c(Br)c(Br)c(Br)c(Br)c21 [SULFOBROMOPHTHALEIN SODIUM]	3.3	3.3
